Laboratory results reported in patent US11584742B2 (MASARYKOVA UNIVERZITA, priority 2018, dated 2023).
pIC50: −log10 of the molar value.

Molecular target: T1, MRE11 (Homo sapiens, UniProt P49959)
T1 sequence (P49959 1-708): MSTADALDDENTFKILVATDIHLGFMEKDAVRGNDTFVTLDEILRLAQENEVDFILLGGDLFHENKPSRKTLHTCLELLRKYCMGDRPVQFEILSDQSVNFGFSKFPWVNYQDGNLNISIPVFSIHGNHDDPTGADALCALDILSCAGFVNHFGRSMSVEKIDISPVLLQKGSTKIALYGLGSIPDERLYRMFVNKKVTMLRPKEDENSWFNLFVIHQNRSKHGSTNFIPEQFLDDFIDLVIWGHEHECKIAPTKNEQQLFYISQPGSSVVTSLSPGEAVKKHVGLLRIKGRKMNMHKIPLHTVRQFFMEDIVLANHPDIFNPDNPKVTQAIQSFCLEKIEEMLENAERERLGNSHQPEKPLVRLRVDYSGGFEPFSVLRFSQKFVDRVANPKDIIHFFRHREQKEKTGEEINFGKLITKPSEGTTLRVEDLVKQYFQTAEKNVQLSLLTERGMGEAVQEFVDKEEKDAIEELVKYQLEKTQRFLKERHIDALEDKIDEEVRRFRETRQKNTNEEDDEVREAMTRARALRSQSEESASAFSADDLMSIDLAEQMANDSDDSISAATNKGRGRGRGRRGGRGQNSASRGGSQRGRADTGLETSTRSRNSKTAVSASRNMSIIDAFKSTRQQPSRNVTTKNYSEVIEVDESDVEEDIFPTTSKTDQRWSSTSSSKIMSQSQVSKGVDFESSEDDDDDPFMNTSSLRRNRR
Assay: HTS nuclease assay (cleavage of CY5/BBQ-quenched 5' overhang DNA substrate)
Type: biochemical
Conditions: in vitro HTS nuclease assay; 18 nM MRE11, 40 nM DNA substrate; analysis at t=4 h
Experimental: DNA Substrate Preparation
The DNA substrate is prepared by mixing the oligonucleotides listed below in a 1:1 ratio to reach a final concentration of 6 μM in a buffer containing 50 mM Tris pH 7.5, 100 mM NaCl and 8 mM MgCl2.
This substrate is a 5′ overhang, which is a preferred substrate of MRE11. […] The fluorescence increases upon substrate cleavage by MRE11, when separation of the two labels occur.
The conditions of the assay are as follows:
Total reaction volume: 5 μL
DNA substrate concentration in the reaction: 40 nM
Inhibitor concentration range tested: 7 nM-50 μM
Each plate contains a series of high and low signal control wells, where no compound is added:
High signal: MRE11+DNA substrate
Low signal: DNA substrate only
These are used during data evaluation.
Two extra assay controls:
1) To check whether unwinding of DNA by the compounds alone occurs.
The DNA substrate [CY5+BBQ(650)] is mixed with the compounds with no protein present.
The CY5 single stranded oligo is mixed with the compounds with no protein present.
The layout of the plates is created by the in-house software (CZ-Openscreen Prague) and this information is transferred to the robotic HTS station.
The reaction is started by the addition of DNA and the reaction time is counted from that moment, including a 15 min delay. Ten timepoints are measured:
The assay data analysis was performed at t=4 h. This corresponds to the time when the reaction is close to its maximum.
The data analysis was performed using the in-house software to obtain IC50 for each compound.

Compound	pIC50
Cc1cc(/C=C(\C#N)C(=O)Nc2nc(-c3ncccc3F)cs2)cc(C)c1O [Preparative Example 250, (E)-2-cyano-N-(4-(3-fluoropyridin-2-yl)thiazol-2-yl)-3-(4-hydroxy-3,5-dimethylphenyl)acrylamide]	4.05 to 5.00
N#C/C(=C\c1cc(Cl)c(O)c(Cl)c1)C(=O)Nc1nc(Cc2ccccc2)cs1 [Preparative Example 275, (E)-N-(4-benzylthiazol-2-yl)-2-cyano-3-(3,5-dichloro-4-hydroxyphenyl)acrylamide]	4.05 to 5.00
N#C/C(=C\c1ccc(O)c(C(=O)O)c1)C(=O)Nc1nc(-c2ccccc2)cs1 [Preparative Example 254, (E)-5-(2-cyano-3-oxo-3-((4-phenylthiazol-2-yl)amino)prop-1-en-1-yl)-2-hydroxybenzoic acid]	4.05 to 5.00
N#C/C(=C\c1ccc(O)cc1Br)C(=O)Nc1nc(-c2ccccc2)cs1 [Preparative Example 256, (E)-3-(2-bromo-4-hydroxyphenyl)-2-cyano-N-(4-phenylthiazol-2-yl)acrylamide]	4.05 to 5.00
Cc1cc(/C=C(\C#N)C(=O)Nc2nc(-c3ccccn3)cs2)cc(C)c1O [Preparative Example 248, (E)-2-cyano-3-(4-hydroxy-3,5-dimethylphenyl)-N-(4-(pyridin-2-yl)thiazol-2-yl)acrylamide]	4.05 to 5.00
N#C/C(=C\c1ccc(O)c(O)c1)C(=O)Nc1ncc(-c2cnccn2)s1 [Preparative Example 262, (E)-2-cyano-3-(3,4-dihydroxyphenyl)-N-(5-(pyrazin-2-yl)thiazol-2-yl)acrylamide]	4.05 to 5.00
COc1cc(/C=C(\C#N)C(=O)Nc2nc(-c3ccccc3)cs2)cc(C#N)c1O [Preparative Example 268, (E)-2-cyano-3-(3-cyano-4-hydroxy-5-methoxyphenyl)-N-(4-phenylthiazol-2-yl)acrylamide]	4.05 to 5.00
N#C/C(=C\c1ccc(O)c(O)c1)C(=O)Nc1nc(-c2ccc(N3CCOCC3)nc2)cs1 [Preparative Example 265, (E)-2-cyano-3-(3,4-dihydroxyphenyl)-N-(4-(6-morpholinopyridin-3-yl)thiazol-2-yl)acrylamide]	5.00 to 5.70
N#C/C(=C\c1ccc(C(=O)O)c(O)c1)C(=O)Nc1nc(-c2ccccc2)cs1 [Preparative Example 259, (E)-4-(2-cyano-3-oxo-3-((4-phenylthiazol-2-yl)amino)prop-1-en-1-yl)-2-hydroxybenzoic acid]	5.00 to 5.70
N#C/C(=C\c1ccc(O)c(C(N)=O)c1)C(=O)Nc1nc(-c2ccccc2)cs1 [Preparative Example 255, (E)-5-(2-cyano-3-oxo-3-((4-phenylthiazol-2-yl)amino)prop-1-en-1-yl)-2-hydroxybenzamide]	4.05 to 5.00
N#C/C(=C\c1ccc(O)c(Br)c1)C(=O)Nc1nc(-c2ccccc2)cs1 [Preparative Example 202, (E)-3-(3-bromo-4-hydroxyphenyl)-2-cyano-N-(4-phenylthiazol-2-yl)acrylamide]	5.00 to 5.70
COC(=O)c1ccc(/C=C(\C#N)C(=O)Nc2nc(-c3ccccc3)cs2)cc1O [Preparative Example 258, Methyl (E)-4-(2-cyano-3-oxo-3-((4-phenylthiazol-2-yl)amino)prop-1-en-1-yl)-2-hydroxybenzoate]	5.00 to 5.70

Now from value to compound:

pIC50	Compound
> 5.70	N#C/C(=C\c1cc(Cl)c(O)c(Cl)c1)C(=O)Nc1nc(-c2ncccc2F)cs1 [Preparative Example 252, (E)-2-cyano-3-(3,5-dichloro-4-hydroxyphenyl)-N-(4-(3-fluoropyridin-2-yl)thiazol-2-yl)acrylamide]
> 5.70	N#C/C(=C\c1cc(O)c(O)c(F)c1)C(=O)Nc1nc(-c2ccccc2)cs1 [Preparative Example 267, (E)-2-cyano-3-(3-fluoro-4,5-dihydroxyphenyl)-N-(4-phenylthiazol-2-yl)acrylamide]
5.00 to 5.70	N#C/C(=C\c1ccc(O)c(CO)c1)C(=O)Nc1nc(-c2ccccc2)cs1 [Preparative Example 260, (E)-2-cyano-3-(4-hydroxy-3-(hydroxymethyl)phenyl)-N-(4-phenylthiazol-2-yl)acrylamide]
> 5.70	N#C/C(=C\c1ccc(O)c(O)c1)C(=O)Nc1nc(-c2ncc(N3CCOCC3)cc2F)cs1 [Preparative Example 270, (E)-2-cyano-3-(3,4-dihydroxyphenyl)-N-(4-(3-fluoro-5-morpholinopyridin-2-yl)thiazol-2-yl)acrylamide]
> 5.70	N#C/C(=C\c1ccc(O)c(O)c1)C(=O)Nc1nc(Cc2ccccc2)cs1 [Preparative Example 273, (E)-N-(4-benzylthiazol-2-yl)-2-cyano-3-(3,4-dihydroxyphenyl)acrylamide]
> 5.70	N#C/C(=C\c1cc(Br)c(O)c(Br)c1)C(=O)Nc1nc(-c2ncccc2F)cs1 [Preparative Example 251, (E)-2-cyano-3-(3,5-dibromo-4-hydroxyphenyl)-N-(4-(3-fluoropyridin-2-yl)thiazol-2-yl)acrylamide]
> 5.70	N#C/C(=C\c1ccc(O)c(O)c1)C(=O)Nc1nc(-c2ccccn2)c(-c2cnccn2)s1 [Preparative Example 263, (E)-2-cyano-3-(3,4-dihydroxyphenyl)-N-(5-(pyrazin-2-yl)-4-(pyridin-2-yl)thiazol-2-yl)acrylamide]
5.00 to 5.70	N#C/C(=C\c1ccc(O)c(O)c1)C(=O)Nc1nc(-c2cccc(N3CCOCC3)n2)cs1 [Preparative Example 264, (E)-2-cyano-3-(3,4-dihydroxyphenyl)-N-(4-(6-morpholinopyridin-2-yl)thiazol-2-yl)acrylamide]
5.00 to 5.70	CC(C)(C)c1ccc(-c2csc(NC(=O)/C(C#N)=C/c3cc(Cl)c(O)c(Cl)c3)n2)cc1 [Preparative Example 224, (E)-N-(4-(4-(tert-butyl)phenyl)thiazol-2-yl)-2-cyano-3-(3,5-dichloro-4-hydroxyphenyl)acrylamide]
> 5.70	N#C/C(=C\c1cc(Br)c(O)c(Br)c1)C(=O)Nc1nc(-c2ccccn2)cs1 [Preparative Example 249, (E)-2-cyano-3-(3,5-dibromo-4-hydroxyphenyl)-N-(4-(pyridin-2-yl)thiazol-2-yl)acrylamide]
5.00 to 5.70	N#C/C(=C\c1cc(Br)c(O)c(Br)c1)C(=O)Nc1nc(Cc2ccccc2)cs1 [Preparative Example 276, (E)-N-(4-benzylthiazol-2-yl)-2-cyano-3-(3,5-dibromo-4-hydroxyphenyl)acrylamide]
> 5.70	N#C/C(=C\c1ccc(O)c(O)c1)C(=O)Nc1nc(C(=O)c2ccccc2)cs1 [Preparative Example 261, (E)-N-(4-benzoylthiazol-2-yl)-2-cyano-3-(3,4-dihydroxyphenyl)acrylamide]
> 5.70	N#C/C(=C\c1cc(Br)c(O)c(Br)c1)C(=O)Nc1nc(-c2ncc(N3CCOCC3)cc2F)cs1 [Preparative Example 271, (E)-2-cyano-3-(3,5-dibromo-4-hydroxyphenyl)-N-(4-(3-fluoro-5-morpholinopyridin-2-yl)thiazol-2-yl)acrylamide]
> 5.70	N#C/C(=C\c1cc(O)c(O)c(Br)c1)C(=O)Nc1nc(-c2ncc(N3CCOCC3)cc2F)cs1 [Preparative Example 272, (E)-3-(3-bromo-4,5-dihydroxyphenyl)-2-cyano-N-(4-(3-fluoro-5-morpholinopyridin-2-yl)thiazol-2-yl)acrylamide]
> 5.70	N#C/C(=C\c1cc(O)c(O)c(Br)c1)C(=O)Nc1nc(-c2ccccc2)cs1 [Preparative Example 266, (E)-3-(3-bromo-4,5-dihydroxyphenyl)-2-cyano-N-(4-phenylthiazol-2-yl)acrylamide]
> 5.70	N#C/C(=C\c1cc(O)c(O)c(C#N)c1)C(=O)Nc1nc(-c2ccccc2)cs1 [Preparative Example 269, (E)-2-cyano-3-(3-cyano-4,5-dihydroxyphenyl)-N-(4-phenylthiazol-2-yl)acrylamide]
